Reference: publication doi:10.1101/2021.04.08.439011v1 (biorxiv, 2021)

Tests used:
PRKG1 = PRKG1 (Homo sapiens, UniProt Q13976); conditions: 1 µM; binder
NEK3 = NEK3 (Homo sapiens, UniProt P51956); conditions: 1 µM; binder
TTK = TTK (Homo sapiens, UniProt P33981); conditions: 1 µM; binder
CDK4-cyclinD3 = CDK4-cyclinD3 (Homo sapiens, UniProt P11802); conditions: 1 µM; binder
RPS6KA4 = RPS6KA4 (Homo sapiens, UniProt O75676); conditions: Kin.Dom.1 N-terminal; binder
NEK9 = NEK9 (Homo sapiens, UniProt Q8TD19); conditions: 1 µM; binder
ABL1(E255K) = ABL1(E255K) (Homo sapiens, UniProt P00519, E255K); conditions: phosphorylated; 1 µM; binder
RET = RET (Homo sapiens, UniProt P07949); conditions: 1 µM; binder
MATK = MATK (Homo sapiens, UniProt P42679); conditions: 1 µM; binder
Chain of MATK (P42679 whole entry): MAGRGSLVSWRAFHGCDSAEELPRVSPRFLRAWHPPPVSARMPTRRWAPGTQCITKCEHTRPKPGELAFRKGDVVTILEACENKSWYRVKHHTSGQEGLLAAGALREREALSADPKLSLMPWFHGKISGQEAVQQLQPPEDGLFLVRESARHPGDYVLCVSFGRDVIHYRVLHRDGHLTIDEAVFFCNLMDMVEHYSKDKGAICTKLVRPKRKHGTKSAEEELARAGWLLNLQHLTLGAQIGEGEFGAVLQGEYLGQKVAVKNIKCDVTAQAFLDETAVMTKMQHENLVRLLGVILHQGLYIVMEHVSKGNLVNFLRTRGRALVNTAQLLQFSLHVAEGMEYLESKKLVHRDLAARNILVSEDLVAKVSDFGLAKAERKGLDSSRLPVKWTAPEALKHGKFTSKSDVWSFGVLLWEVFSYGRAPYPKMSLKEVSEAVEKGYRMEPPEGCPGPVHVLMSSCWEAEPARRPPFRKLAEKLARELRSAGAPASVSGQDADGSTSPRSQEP

ERBB4 = ERBB4 (Homo sapiens, UniProt Q15303); conditions: 1 µM; binder
SNRK = SNRK (Homo sapiens, UniProt Q9NRH2); conditions: 1 µM; binder
PIKFYVE = PIKFYVE (Homo sapiens, UniProt Q9Y2I7); conditions: 1 µM; binder
Chain of PIKFYVE (Q9Y2I7 whole entry): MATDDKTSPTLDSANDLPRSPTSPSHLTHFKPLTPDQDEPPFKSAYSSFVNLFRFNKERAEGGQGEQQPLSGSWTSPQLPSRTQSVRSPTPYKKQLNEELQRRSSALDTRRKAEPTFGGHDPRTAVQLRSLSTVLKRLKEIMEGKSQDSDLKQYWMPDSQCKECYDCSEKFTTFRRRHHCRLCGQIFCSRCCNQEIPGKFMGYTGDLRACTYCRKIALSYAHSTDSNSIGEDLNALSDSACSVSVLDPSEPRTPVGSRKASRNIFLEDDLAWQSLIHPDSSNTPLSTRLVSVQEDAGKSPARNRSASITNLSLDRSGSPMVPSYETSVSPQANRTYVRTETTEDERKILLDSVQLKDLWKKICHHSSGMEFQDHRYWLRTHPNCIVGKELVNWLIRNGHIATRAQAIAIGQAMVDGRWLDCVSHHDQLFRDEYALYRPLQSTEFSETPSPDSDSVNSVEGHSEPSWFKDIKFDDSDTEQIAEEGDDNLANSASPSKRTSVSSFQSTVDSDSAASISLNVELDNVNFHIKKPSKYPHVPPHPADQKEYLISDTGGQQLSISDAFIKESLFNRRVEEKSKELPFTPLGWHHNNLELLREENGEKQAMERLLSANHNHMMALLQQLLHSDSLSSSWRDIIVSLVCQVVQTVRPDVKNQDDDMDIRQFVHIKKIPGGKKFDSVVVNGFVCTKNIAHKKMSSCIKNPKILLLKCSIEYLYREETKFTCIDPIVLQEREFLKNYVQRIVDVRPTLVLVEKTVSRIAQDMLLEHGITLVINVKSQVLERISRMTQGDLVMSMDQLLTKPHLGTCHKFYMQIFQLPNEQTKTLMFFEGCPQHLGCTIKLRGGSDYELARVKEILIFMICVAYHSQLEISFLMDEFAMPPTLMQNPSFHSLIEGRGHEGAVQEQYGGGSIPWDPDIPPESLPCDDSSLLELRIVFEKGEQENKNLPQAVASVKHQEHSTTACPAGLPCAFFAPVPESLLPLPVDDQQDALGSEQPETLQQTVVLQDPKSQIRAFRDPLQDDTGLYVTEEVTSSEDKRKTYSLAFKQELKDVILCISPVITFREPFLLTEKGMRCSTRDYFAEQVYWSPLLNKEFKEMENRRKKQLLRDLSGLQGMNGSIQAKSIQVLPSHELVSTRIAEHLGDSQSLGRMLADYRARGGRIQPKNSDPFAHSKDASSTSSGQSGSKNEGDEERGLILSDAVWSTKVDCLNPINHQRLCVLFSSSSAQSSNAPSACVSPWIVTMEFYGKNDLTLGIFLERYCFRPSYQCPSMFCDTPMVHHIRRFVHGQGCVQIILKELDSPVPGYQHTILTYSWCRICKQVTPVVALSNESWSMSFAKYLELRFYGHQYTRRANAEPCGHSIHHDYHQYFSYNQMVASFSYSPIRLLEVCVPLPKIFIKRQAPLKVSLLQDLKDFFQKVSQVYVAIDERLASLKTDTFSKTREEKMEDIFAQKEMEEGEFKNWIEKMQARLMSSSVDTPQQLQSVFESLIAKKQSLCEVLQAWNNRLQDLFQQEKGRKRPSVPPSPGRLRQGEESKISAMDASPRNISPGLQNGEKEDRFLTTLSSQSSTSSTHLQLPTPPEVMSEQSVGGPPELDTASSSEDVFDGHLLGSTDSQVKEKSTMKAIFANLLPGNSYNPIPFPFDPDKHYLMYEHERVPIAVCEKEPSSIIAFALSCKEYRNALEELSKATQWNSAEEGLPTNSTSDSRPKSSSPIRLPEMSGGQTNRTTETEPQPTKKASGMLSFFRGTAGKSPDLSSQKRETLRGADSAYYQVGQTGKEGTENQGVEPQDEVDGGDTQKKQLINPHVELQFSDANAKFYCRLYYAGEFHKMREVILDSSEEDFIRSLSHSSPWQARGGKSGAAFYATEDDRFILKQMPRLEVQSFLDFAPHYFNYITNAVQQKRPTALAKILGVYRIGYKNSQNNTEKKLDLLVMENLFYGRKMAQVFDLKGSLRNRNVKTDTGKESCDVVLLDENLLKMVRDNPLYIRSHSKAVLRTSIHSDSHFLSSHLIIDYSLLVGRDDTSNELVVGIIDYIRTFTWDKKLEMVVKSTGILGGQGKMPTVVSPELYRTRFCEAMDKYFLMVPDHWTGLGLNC

NIM1 = NIM1 (Homo sapiens, UniProt Q8IY84); conditions: 1 µM; binder
ABL1-nonphosphorylated = ABL1-nonphosphorylated (Homo sapiens, UniProt P00519); conditions: 1 µM; binder
PFTAIRE2 = PFTAIRE2 (Homo sapiens, UniProt Q96Q40); conditions: 1 µM; binder
Chain of PFTAIRE2 (Q96Q40 whole entry): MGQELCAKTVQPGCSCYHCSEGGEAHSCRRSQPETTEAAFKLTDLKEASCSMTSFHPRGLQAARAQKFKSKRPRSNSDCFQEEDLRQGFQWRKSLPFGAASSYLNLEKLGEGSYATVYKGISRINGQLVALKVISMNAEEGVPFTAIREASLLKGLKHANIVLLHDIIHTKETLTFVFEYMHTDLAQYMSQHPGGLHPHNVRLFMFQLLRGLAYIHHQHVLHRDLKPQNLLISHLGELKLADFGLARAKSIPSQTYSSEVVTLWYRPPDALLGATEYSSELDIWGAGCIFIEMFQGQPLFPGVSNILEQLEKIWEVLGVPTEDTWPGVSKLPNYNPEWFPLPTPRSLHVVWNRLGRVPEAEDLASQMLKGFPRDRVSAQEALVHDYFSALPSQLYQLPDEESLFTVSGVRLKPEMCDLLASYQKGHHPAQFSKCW

FAK = FAK (Homo sapiens, UniProt Q05397); conditions: 1 µM; binder
ERK8 = ERK8 (Homo sapiens, UniProt Q8TD08); conditions: 1 µM; binder
PRKD2 = PRKD2 (Homo sapiens, UniProt Q9BZL6); conditions: 1 µM; binder
CSNK1E = CSNK1E (Homo sapiens, UniProt P49674); conditions: 1 µM; binder
HCK = HCK (Homo sapiens, UniProt P08631); conditions: 1 µM; binder
ABL1(Y253F) = ABL1(Y253F) (Homo sapiens, UniProt P00519, Y253F); conditions: phosphorylated; 1 µM; binder
PAK2 = PAK2 (Homo sapiens, UniProt Q13177); conditions: 1 µM; binder
Chain of PAK2 (Q13177 whole entry): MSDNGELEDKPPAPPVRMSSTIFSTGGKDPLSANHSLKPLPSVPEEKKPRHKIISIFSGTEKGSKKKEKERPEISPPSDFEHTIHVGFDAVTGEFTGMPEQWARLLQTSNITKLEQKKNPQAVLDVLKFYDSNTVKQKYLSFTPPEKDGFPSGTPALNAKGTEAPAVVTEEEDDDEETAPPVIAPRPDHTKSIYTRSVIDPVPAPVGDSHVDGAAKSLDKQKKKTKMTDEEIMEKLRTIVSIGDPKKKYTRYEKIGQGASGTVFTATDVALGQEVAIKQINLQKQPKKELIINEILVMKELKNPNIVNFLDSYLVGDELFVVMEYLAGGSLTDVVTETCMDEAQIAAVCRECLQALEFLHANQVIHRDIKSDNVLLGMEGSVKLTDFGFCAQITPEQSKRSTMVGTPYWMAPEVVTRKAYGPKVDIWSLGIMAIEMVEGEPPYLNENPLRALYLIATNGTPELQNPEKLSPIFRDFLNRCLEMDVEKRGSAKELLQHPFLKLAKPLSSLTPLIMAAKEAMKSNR

ACVRL1 = ACVRL1 (Homo sapiens, UniProt P37023); conditions: 1 µM; binder
VEGFR2 = VEGFR2 (Homo sapiens, UniProt P35968); conditions: 1 µM; binder
RIPK1 = RIPK1 (Homo sapiens, UniProt Q13546); conditions: 1 µM; binder
DAPK1 = DAPK1 (Homo sapiens, UniProt P53355); conditions: 1 µM; binder
RET(M918T) = RET(M918T) (Homo sapiens, UniProt P07949, M918T); conditions: 1 µM; binder
KIT(D816H) = KIT(D816H) (Homo sapiens, UniProt P10721, D816H); conditions: 1 µM; binder
Chain of KIT(D816H) (P10721 whole entry D816H): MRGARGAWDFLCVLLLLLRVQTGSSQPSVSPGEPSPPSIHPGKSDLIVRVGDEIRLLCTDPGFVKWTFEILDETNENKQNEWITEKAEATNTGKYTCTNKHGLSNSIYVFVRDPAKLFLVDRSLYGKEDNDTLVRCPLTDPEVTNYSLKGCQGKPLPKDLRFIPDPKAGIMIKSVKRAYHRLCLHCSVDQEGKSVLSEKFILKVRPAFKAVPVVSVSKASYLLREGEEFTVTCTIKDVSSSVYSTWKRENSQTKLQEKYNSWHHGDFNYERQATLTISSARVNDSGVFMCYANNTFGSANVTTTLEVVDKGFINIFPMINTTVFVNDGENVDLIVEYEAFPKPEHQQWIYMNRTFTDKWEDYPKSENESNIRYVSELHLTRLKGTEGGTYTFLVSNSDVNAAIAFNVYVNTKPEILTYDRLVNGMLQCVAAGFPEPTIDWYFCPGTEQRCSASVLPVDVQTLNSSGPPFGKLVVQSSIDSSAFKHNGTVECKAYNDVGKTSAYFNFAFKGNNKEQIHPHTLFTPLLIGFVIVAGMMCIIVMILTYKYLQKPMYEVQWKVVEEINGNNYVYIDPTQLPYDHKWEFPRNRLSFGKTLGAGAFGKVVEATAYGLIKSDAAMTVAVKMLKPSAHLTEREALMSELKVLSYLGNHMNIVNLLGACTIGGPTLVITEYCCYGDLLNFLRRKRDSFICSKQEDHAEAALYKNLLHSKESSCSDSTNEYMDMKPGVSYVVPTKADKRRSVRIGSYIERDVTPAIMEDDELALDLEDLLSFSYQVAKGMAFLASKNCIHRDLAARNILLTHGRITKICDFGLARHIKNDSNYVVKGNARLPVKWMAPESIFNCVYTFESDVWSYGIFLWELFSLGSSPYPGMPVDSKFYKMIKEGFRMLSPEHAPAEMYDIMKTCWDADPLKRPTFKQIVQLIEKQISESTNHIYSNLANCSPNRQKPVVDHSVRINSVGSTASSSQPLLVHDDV

MET(Y1235D) = MET(Y1235D) (Homo sapiens, UniProt P08581, Y1235D); conditions: 1 µM; binder
ERBB3 = ERBB3 (Homo sapiens, UniProt P21860); conditions: 1 µM; binder

Chain of NEK3 (P51956 whole entry): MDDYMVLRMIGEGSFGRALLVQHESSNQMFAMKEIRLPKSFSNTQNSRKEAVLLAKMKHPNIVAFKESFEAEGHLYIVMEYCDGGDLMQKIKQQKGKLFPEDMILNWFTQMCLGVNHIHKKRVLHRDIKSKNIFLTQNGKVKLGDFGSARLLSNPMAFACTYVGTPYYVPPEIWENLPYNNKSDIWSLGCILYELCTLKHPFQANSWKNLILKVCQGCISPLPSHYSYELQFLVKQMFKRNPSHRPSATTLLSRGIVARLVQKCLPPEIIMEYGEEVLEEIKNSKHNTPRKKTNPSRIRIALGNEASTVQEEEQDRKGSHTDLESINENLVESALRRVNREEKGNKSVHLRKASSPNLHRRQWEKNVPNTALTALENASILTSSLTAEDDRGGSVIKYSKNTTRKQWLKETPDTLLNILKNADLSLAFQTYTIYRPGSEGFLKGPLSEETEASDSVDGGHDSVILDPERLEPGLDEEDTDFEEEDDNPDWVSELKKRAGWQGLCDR

CNc1ncc2cc(-c3ccc(-c4cccc(C)n4)cc3Cl)c(=O)n(C[C@H]3OC[C@H](N)CO3)c2n1 [compound 6, G-5555]
Percent Control (PRKG1): 100% | Percent Control (NEK3): 72% | Percent Control (TTK): 97% | Percent Control (CDK4-cyclinD3): 100% | Percent Control (RPS6KA4): 100% | Percent Control (NEK9): 100% | Percent Control (ABL1(E255K)): 100% | Percent Control (RET): 94% | Percent Control (MATK): 100% | Percent Control (ERBB4): 100% | Percent Control (SNRK): 89% | Percent Control (PIKFYVE): 100% | Percent Control (NIM1): 100% | Percent Control (ABL1-nonphosphorylated): 85% | Percent Control (PFTAIRE2): 100% | Percent Control (FAK): 100% | Percent Control (ERK8): 100% | Percent Control (PRKD2): 27% | Percent Control (CSNK1E): 52% | Percent Control (HCK): 100% | Percent Control (ABL1(Y253F)): 100% | Percent Control (PAK2): 0% | Percent Control (ACVRL1): 100% | Percent Control (VEGFR2): 93% | Percent Control (RIPK1): 100% | Percent Control (DAPK1): 100% | Percent Control (RET(M918T)): 100% | Percent Control (KIT(D816H)): 100% | Percent Control (MET(Y1235D)): 93% | Percent Control (ERBB3): 86%
